Results from patent publication US20220009920A1 (GB005, Inc., priority 2020, published 2022).

How the values were obtained:
Assay in all cases: Large panel kinase profiling
Type in all cases: biochemical
Conditions in all cases: 1 μM test article, 1 mM ATP
[1] = molecular target: FGFR3 (Homo sapiens, UniProt P22607)
Summary of the method: (§1)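 CSox-Sensor fluorescence readout; test article 1 μM, ATP 1 mM, 30° C.; kinetic reads at 1-min intervals, Ex 360/Em 485 nm.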

[2] = molecular target: T1, MYO3B (Homo sapiens, UniProt Q8WXR4)
T1 construct: AssayQuant Technologies, Inc. (assay service)
T1 sequence (Q8WXR4 1-1341): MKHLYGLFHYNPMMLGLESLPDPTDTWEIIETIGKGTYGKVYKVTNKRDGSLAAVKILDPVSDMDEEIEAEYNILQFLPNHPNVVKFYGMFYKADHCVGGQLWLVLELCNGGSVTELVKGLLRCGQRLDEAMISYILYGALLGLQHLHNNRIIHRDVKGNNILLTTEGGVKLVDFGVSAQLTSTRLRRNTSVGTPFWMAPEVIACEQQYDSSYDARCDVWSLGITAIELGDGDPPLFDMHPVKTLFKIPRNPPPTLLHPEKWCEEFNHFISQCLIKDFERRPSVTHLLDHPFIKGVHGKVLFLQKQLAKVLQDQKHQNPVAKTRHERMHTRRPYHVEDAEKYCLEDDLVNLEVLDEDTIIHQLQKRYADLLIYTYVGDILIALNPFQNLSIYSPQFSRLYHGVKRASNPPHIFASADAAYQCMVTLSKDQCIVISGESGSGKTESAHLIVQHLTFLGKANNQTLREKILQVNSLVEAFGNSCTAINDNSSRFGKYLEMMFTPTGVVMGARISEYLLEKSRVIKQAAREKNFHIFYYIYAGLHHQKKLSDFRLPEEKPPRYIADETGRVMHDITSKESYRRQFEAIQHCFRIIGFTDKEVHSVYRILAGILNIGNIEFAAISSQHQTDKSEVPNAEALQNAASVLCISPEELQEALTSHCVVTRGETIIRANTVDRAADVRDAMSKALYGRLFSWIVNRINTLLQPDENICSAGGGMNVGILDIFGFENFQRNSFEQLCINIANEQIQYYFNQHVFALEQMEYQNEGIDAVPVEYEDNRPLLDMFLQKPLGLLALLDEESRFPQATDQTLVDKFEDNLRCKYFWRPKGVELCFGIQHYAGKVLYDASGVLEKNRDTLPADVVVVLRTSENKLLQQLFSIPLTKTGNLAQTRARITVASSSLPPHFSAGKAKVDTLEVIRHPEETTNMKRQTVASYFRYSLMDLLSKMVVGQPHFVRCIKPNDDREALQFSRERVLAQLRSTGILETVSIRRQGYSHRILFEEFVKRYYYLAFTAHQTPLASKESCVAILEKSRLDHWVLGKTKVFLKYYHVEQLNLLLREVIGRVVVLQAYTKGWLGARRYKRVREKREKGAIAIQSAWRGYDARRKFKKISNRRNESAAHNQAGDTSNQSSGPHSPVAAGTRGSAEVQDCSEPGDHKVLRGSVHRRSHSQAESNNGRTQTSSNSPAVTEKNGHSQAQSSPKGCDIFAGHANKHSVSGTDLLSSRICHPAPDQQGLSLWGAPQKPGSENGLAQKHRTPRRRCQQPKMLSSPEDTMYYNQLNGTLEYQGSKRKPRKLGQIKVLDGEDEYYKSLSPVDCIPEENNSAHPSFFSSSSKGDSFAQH
Summary of the method: as §1

[3] = molecular target: T2, TAOK1 (Homo sapiens, UniProt Q7L7X3)
T2 construct: AssayQuant Technologies, Inc. (contract assay)
T2 sequence (Q7L7X3 1-1001): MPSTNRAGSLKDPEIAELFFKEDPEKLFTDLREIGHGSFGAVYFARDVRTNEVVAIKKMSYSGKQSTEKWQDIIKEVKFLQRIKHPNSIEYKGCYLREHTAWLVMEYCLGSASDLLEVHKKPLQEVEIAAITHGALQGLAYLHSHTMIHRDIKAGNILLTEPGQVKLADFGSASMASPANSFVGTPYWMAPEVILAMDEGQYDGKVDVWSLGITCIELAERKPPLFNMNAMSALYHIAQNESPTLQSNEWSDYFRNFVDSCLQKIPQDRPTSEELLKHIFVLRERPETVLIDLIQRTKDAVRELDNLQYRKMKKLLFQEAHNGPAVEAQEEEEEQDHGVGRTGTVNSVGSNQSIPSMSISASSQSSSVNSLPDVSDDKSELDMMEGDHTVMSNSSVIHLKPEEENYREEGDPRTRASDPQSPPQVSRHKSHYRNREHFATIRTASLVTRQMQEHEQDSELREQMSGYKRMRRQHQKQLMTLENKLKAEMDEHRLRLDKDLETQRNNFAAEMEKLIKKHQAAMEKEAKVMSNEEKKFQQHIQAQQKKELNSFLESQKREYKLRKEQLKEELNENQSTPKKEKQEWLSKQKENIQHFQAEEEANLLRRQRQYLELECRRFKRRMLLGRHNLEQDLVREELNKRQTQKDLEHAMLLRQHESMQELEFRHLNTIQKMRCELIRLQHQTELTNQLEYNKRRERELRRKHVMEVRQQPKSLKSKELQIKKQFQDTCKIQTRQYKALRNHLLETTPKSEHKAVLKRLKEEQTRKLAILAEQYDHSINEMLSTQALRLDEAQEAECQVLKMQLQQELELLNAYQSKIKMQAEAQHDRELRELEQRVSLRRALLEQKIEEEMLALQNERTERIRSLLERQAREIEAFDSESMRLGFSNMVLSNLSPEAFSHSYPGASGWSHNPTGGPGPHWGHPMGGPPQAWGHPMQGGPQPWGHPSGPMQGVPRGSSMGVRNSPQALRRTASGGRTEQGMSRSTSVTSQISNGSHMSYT
Summary of the method: as §1

FGFR3, sequence (P22607 23-806, species assumed): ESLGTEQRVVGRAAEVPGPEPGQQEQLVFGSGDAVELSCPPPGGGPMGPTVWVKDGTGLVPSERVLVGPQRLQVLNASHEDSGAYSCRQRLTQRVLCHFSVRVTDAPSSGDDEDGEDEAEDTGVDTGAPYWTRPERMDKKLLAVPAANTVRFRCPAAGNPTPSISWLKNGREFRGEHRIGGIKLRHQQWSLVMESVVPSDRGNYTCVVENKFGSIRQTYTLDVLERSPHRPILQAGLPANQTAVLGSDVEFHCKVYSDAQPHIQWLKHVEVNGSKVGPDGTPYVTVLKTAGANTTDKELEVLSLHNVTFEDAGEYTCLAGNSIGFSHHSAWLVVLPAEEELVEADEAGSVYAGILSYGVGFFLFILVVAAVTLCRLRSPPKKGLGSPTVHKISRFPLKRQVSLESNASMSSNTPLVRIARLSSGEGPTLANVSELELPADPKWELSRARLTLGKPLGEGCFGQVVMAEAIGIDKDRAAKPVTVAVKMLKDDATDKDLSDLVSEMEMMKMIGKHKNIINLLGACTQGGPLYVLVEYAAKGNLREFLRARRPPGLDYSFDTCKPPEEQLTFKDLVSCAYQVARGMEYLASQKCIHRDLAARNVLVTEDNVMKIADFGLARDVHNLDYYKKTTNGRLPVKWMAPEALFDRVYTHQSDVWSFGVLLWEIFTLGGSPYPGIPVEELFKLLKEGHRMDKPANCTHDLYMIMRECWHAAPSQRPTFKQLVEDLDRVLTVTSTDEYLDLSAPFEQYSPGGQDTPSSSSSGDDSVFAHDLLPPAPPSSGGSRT

Compound	inhibition at 1 µM [1] [%]	inhibition at 1 µM [2] [%]	inhibition at 1 µM [3] [%]
C=CC(=O)N1CCCC(c2c(F)cc(C(N)=O)c3[nH]c4c(c23)CCCCC4)C1 (single isomer, unassigned) [Compound 5-6]	24.2	-36.2	11.9
C=CC(=O)N1CCC[C@@H](c2c(F)cc(C(N)=O)c3[nH]c4c(c23)CC2(CC4)CC2)C1 [Compound 6-2, (S)-5-(1-acryloylpiperidin-3-yl)-6-fluoro-1,2,4,9-tetrahydrospiro[carbazole-3,1′-cyclopropane]-8-carboxamide]	10.5	-16.5	9.5
C=CC(=O)N1CCC[C@@H](c2c(F)cc(C(N)=O)c3[nH]c4c(c23)CCC4)C1 [Compound 10-2, (S)-8-(1-acryloylpiperidin-3-yl)-7-fluoro-1,2,3,4-tetrahydrocyclo-penta[b]indole-5-carboxamide]	18.3	-11	11.1
